Experimental data as given in US11066447B2, “Aureobasidium derivatives and methods of synthesis” (AureoGen Biosciences, Inc., priority 2016, dated 2021).
In brackets after ≈: the same amount, converted by molar mass. Several values for one entry are separate records, joined by “and”; a condition that tells them apart may be missing. Identical values can stand only once. Like-named read-outs stand apart in the source and are kept apart here. Numbered stars: 1 amine (or outer) side, 2 acyl side, 3 side chain; on linkers, the order of the positions; unused ones are H or OH. Square brackets hold non-standard residues; d marks the D form. Peptide text beside a SMILES is read from it. ξ: configuration not given here. X4 = CN1CCN(c2cc(-c3cccc(C[C@@H](C(=O)[*:2])N(C)[*:1])c3)ccn2)CC1; X30 = CN([C@@H](Cc1cccc(-c2ccc(Cl)c(Cl)c2)c1)C(=O)[*:2])[*:1]; X5 = CN([C@@H](Cc1cccc(-c2ccc3cnccc3c2)c1)C(=O)[*:2])[*:1]; Hmp(2R,3S) = CC[C@H](C)[C@@H](O)C(=O)O; NMeVal(β-OH) = CN[C@H](C(=O)O)C(C)(C)O; X6 = CCC(C)[C@@H](O[*:1])C(=O)[*:2]; Ile(3ξ) = CCC(C)[C@H](N)C(=O)O; NMeV = CN[C@H](C(=O)O)C(C)C; ξL = CC(C)CC(N)C(=O)O

How the values were obtained:
[1] = test system: C. albicans MMX 2000 ATCC 10231; test: MIC assay (CLSI microdilution); type: cell-based; conditions: Candida albicans, ATCC10231, RPMI plus 0.002% Tween-80; read-out: MIC
Procedure: (§1) Aureobasidin and test compounds (i.e., AbA derivatives of the present invention) were received from Kalexsyn, Inc. (Kalamazoo, Mich.) as powder and were stored at 4° C. until the day of assay. […] amphotericin was obtained from Sigma Aldrich and stored under like conditions. […] Ethanol (95%) was used as a solvent and diluent for all AbA compounds. Amphotericin B was tested from 0.06-64 μg/mL. Amphotericin B (Sigma Aldrich; St. Louis, Mo.; Cat No. A9528-100MG, Lot No. 120M4087) was dissolved and diluted with dimethylsulfoxide (DMSO; Sigma Aldrich; St. Louis, Mo.; Cat No. 472301 Lot No. SHBD2072V).
(§2) The solvents were added to the test agents and the stock solutions stood for approximately 1 hr at room temperature prior to use to auto sterilize. Stock solutions were prepared at 40× the desired top concentration in the test plate.
(§3) All of the test isolates were originally received from either the American Type Culture Collection (ATCC), clinical labs, or directly from Aureogen Biosciences. Organisms stored by Micromyx were cultured on agar medium appropriate to each organism. Colonies were picked by swab from the isolation plates and put into suspension in appropriate broth containing cryoprotectant. The suspensions were aliquoted into cryogenic vials and maintained at −80° C.
(§4) Prior to testing, Candida isolates were streaked from the frozen vials on Sabouraud dextrose agar. The yeast isolates were incubated for 48 hours at 35° C. before use. The fungal isolates were obtained from enumerated fungal stocks previously prepared at Micromyx and stored in phosphate buffered saline at 4° C.
(§5) Test Media. The medium employed for the MIC assay was RPMI-1640 medium from HyClone Laboratories (Logan, Utah; Lot No. AYB60287A). The medium was prepared according to Clinical and Laboratory Standards Institute (CLSI) guidelines (1, 2), and modified to include 0.002% Tween-80. Candida parapsilosis ATCC 22019 (MMX 2323) and Aspergillus fumigatus ATCC MYA-3626 (MMX 5280) were also tested without Tween-80 to provide data for the quality control of amphotericin B in accordance with CLSI (3) and to assess the effect of Tween-80 on the activity of the test agents.
(§6) Test Procedure. The MIC assay method followed the procedure described by CLSI (1, 2) and employed automated liquid handlers to conduct serial dilutions and liquid transfers. Automated liquid handlers included the Multidrop 384 (Labsystems, Helsinki, Finland), Biomek 2000 and Biomek FX (Beckman Coulter, Fullerton Calif.). The wells in columns 2-12 in standard 96-well microdilution plates (Costar 3795) were filled with 150 μl of the appropriate diluent (95% EtOH for investigational compounds, 100% DMSO for amphotericin B). These assay plates would become the ‘mother plates’ from which the assay ‘daughter plates’ would be prepared. The drugs (300 μL at 40× the desired top concentration in the test plates) were dispensed into the appropriate well in Column 1 of the mother plates. The Biomek 2000 was used to make two-fold serial dilutions through Column 11 in the “mother plate”. The wells of Column 12 contained no drug and served as the organism growth control wells.
(§7) The daughter plates were loaded with 185 μL per well on the Multidrop 384 with RPMI plus 0.002% Tween-80 or RPMI containing no Tween-80 for the testing of the two QC isolates. The daughter plates were prepared on the Biomek FX instrument which transferred 5 μL of drug solution from each well of a mother plate to each corresponding well of each daughter plate in a single step.
(§8) A standardized inoculum of each organism was prepared per CLSI methods (1, 2). For the Candida isolates, colonies were picked from the streak plate and a suspension was prepared in RPMI to equal a 0.5 McFarland standard. This suspension was diluted 1:100 in RPMI resulting in a final concentration of approximately 0.5-2.5×10^3 CFU/mL. […]

[2] = test system: C. neoformans MMX 0634 ATCC 90112; test: MIC assay (CLSI microdilution); type: cell-based; conditions: Cryptococcus neoformans, ATCC90112, RPMI plus 0.002% Tween-80; read-out: MIC
Procedure: as §1, §2, §3, §4, §5, §6, §7, §8

[3] = test system: A. fumigatus MMX 5280 ATCC MYA-3626; test: MIC/MEC assay (CLSI microdilution); type: cell-based, Aspergillus fumigatus
Procedure: as §1, §2, §3, §4, §5, §6, §7, §8

[4] = test system: A. fumigatus MMX 6781 ATCC MYA-4609; test: MIC/MEC assay (CLSI microdilution); type: cell-based; conditions: Aspergillus fumigatus; for MIC: 48 h, RPMI plus 0.002% Tween-80, read-out: MIC; for minimal effective concentration: RPMI plus 0.002% Tween-80, 48 hr
Procedure: as §1, §2, §3, §4, §5, §6, §7, §8

[5] = test system: A. fumigatus MMX 6782 ATCC 13073; test: MIC/MEC assay (CLSI microdilution); type: cell-based; conditions: Aspergillus fumigatus, ATCC13073, 48 h; for MIC: RPMI plus 0.002% Tween-80, read-out: MIC
Procedure: as §1, §2, §3, §4, §5, §6, §7, §8

[6] = test system: A. niger MMX 0624 ATCC 16888; test: MIC/MEC assay (CLSI microdilution); type: cell-based; conditions: Aspergillus niger, ATCC16888, 48 h
Procedure: as §1, §2, §3, §4, §5, §6, §7, §8

A. flavus MMX 5948 = test: MIC/MEC assay (CLSI microdilution); type: cell-based
Procedure: as §1, §2, §3, §4, §5, §6, §7, §8

A. fumigatus MMX 5944 = test: MIC/MEC assay (CLSI microdilution); type: cell-based; conditions: for minimal effective concentration / MIC: Aspergillus fumigatus, MMX5944, 48 h; for MIC: RPMI plus 0.002% Tween-80, read-out: MIC
Procedure: as §1, §2, §3, §4, §5, §6, §7, §8

[7] = test system: C. parapsilosis MMX 2323 ATCC 22019; test: MIC assay (CLSI microdilution); type: cell-based, Candida parapsilosis
Procedure: as §1, §2, §3, §4, §5, §6, §7, §8

[8] = test system: A. fumigatus from Aureogen; test: MIC/MEC assay (CLSI microdilution); type: cell-based
Procedure: as §1, §2, §3, §4, §5, §6, §7, §8

[9] = Aspergillus fumigatus, 48 h, RPMI plus 0.002% Tween-80, read-out: MEC
[10] = Aspergillus fumigatus, 48 h, RPMI plus 0.002% Tween-80, read-out: MIC
[11] = Aspergillus fumigatus, 48 h, Without Tween-80, read-out: MIC
[12] = RPMI plus 0.002% Tween-80, read-out: MEC
[13] = RPMI plus 0.002% Tween-80, read-out: MIC
[14] = Aspergillus flavus, MMX5948, 48 h, RPMI plus 0.002% Tween-80
[15] = Aspergillus flavus, MMX5948, 48 h, RPMI plus 0.002% Tween-80, read-out: MIC
[16] = ATCC22019, RPMI plus 0.002% Tween-80, read-out: MIC
[17] = ATCC22019, Without Tween-80, read-out: MIC
[18] = read-out: MEC, RPMI plus 0.002% Tween-80
[19] = RPMI plus 0.002% Tween-80, 48 hr

Row | MIC [2] [µg/mL] | MIC [3, 10] [µg/mL] | MIC [3, 11] [µg/mL] | MIC [4] [µg/mL] | MIC [5] [µg/mL] | MIC [6, 13] [µg/mL] | MIC (A. flavus MMX 5948; [15]) [µg/mL] | MIC (A. fumigatus MMX 5944) [µg/mL] | MIC [7, 16] [µg/mL] | MIC [7, 17] [µg/mL] | Compound | minimal effective concentration [3, 9] [µg/mL] | minimal effective concentration [4] [µg/mL] | minimal effective concentration (A. fumigatus MMX 5944; RPMI plus 0.002% Tween-80) [µg/mL] | MIC ([3]; Without Tween-80, 48 hr) [µg/mL] | also measured
1 | 0.12 | > 64 | > 64 | > 64 | > 64 | 0.5 | 1 | > 64 | 0.5 | 2 (≈ 1.6 µM) | CC[C@H](C)[C@@H]1NC(=O)[C@@H]2CCCN2C(=O)[C@H](Cc2cccc(-c3ccc(Cl)c(Cl)c3)c2)N(C)C(=O)[C@H](Cc2ccccc2)NC(=O)[C@H](C(C)C)N(C)C(=O)[C@@H]([C@@H](C)CC)OC(=O)[C@H](C(C)(C)O)N(C)C(=O)[C@H](CC(C)C)NC(=O)[C@H](C(C)C)N(C)C1=O [Compound 2] (cyclo(F[X30]PI[NMeV]L[NMeVal(β-OH)][Hmp(2R,3S)][NMeV])) | 0.5 | 0.5 | 0.5 | – | MIC [1]: 0.12 µg/mL; minimal effective concentration ([3]; Aspergillus fumigatus, 48 h, Without Tween-80, read-out: MEC): 8 µg/mL; minimal effective concentration [5, 12]: 0.25 µg/mL; minimal effective concentration [6, 12]: 0.5 µg/mL; minimal effective concentration (A. flavus MMX 5948; [14]): 0.5 µg/mL
2 | – | – | – | – | – | – | – | – | – | – | CCC(C)[C@@H]1NC(=O)[C@@H]2CCCN2C(=O)[C@H](Cc2cccc(-c3ccc4cnccc4c3)c2)N(C)C(=O)[C@H](Cc2ccccc2)NC(=O)[C@H](C(C)C)N(C)C(=O)[C@@H](C(C)CC)OC(=O)[C@H](C(C)(C)O)N(C)C(=O)C(CC(C)C)NC(=O)[C@H](C(C)C)N(C)C1=O (stereo partly drawn) [Compound 6] (cyclo(F[X5]P[Ile(3ξ)][NMeV][ξL][NMeVal(β-OH)][X6][NMeV])) | – | – | – | > 64 | minimal effective concentration ([3]; Aspergillus fumigatus, 48 h, read-out: MEC, RPMI plus 0.002% Tween-80): 1 µg/mL; minimal effective concentration ([3]; Aspergillus fumigatus, 48 h, read-out: MEC, Without Tween-80): 2 µg/mL; minimal effective concentration [5, 18]: 0.25 µg/mL; MIC ([6]; RPMI plus 0.002% Tween-80): 0.12 µg/mL; minimal effective concentration [6, 18]: 0.12 µg/mL; MIC (A. flavus MMX 5948; [14]): 0.25 µg/mL; MEC (A. fumigatus MMX 5944; [19]): 0.5 µg/mL; MIC ([7]; ATCC22019, RPMI plus 0.002% Tween-80): 0.12 µg/mL; MIC ([7]; ATCC22019, Without Tween-80): 1 µg/mL (≈ 0.814 µM)
3 | 0.06 | 0.25 | 1 (≈ 0.783 µM) | 0.25 | 0.5 | 0.03 | 0.25 | 0.5 | 0.03 | 0.5 (≈ 0.392 µM) | CC[C@H](C)[C@@H]1NC(=O)[C@@H]2CCCN2C(=O)[C@H](Cc2cccc(-c3ccnc(N4CCN(C)CC4)c3)c2)N(C)C(=O)[C@H](Cc2ccccc2)NC(=O)[C@H](C(C)C)N(C)C(=O)[C@@H]([C@@H](C)CC)OC(=O)[C@H](C(C)(C)O)N(C)C(=O)[C@H](CC(C)C)NC(=O)[C@H](C(C)C)N(C)C1=O [Compound 15] (cyclo(F[X4]PI[NMeV]L[NMeVal(β-OH)][Hmp(2R,3S)][NMeV])) | 0.12 | 0.12 | 0.06 | 2 (≈ 1.57 µM) | MEC ([3]; Without Tween-80, 48 hr): 1/1 μg/mL and 1 μg/mL; minimal effective concentration ([8]; Aspergillus fumigatus, 48 h, RPMI plus 0.002% Tween-80): 0.06 µg/mL; MIC [8, 10]: 0.25 µg/mL; MIC [8, 19]: 0.25 µg/mL; MIC (A. flavus MMX 5948; [19]): 0.25 µg/mL; MIC ([7]; Without Tween-80): 0.5 µg/mL (≈ 0.392 µM)
